71 molecules from patent publication US10774051B2, “6-membered heterocyclic derivatives and pharmaceutical composition comprising the same” (Shionogi & Co., Ltd., priority 2015, dated 2020) can be followed below.

Structures are written as SMILES.

The first experiment deals with human P2X7 receptor (Homo sapiens, UniProt Q99572, R270H/Y155H). Description: Evaluation of human P2X7 receptor inhibitory activity (Yo-Pro uptake, BzATP stimulation, FLIPR TETRA). It is filed as cell-based. Particulars: 1321N1 cells stably expressing human P2X7 receptor; BzATP stimulation, Yo-Pro uptake; read-out: IC50 (antagonistic activity for the human P2X7 receptor). In outline:
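1321N1 cells stably expressing human P2X7 (T606C/G952A SNP variant), in HBSS buffer pH 7.4-7.5 with Yo-Pro, stimulated with BzATP; compound added 8 min after agonist. Fluorescence followed for 20 min on FLIPR; max-minus-min change gave % inhibition, IC50 by logistic fit.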
For `COc1cn(Cc2cc(F)cc(Cl)c2)c(Nc2cccc3sccc23)nc1=O` [Compound I-0670], the IC50 amounted to 20 nM. On the same count and under the same terms, the same measure for `COc1cn(CCc2ccccc2)c(Nc2cccc(Cl)c2C)nc1=O` [Compound I-0008]: 37 nM; for `COc1cn(Cc2ccc(F)c(C)c2)c(Nc2cccc(Cl)c2C)nc1=O` [Compound I-0520]: 9 nM.

Turning to `COc1cn(Cc2ccc(F)c(Cl)c2)c(Nc2cc(-c3ncco3)ccc2C)cc1=O` [Compound I-0953], the IC50 stood at 25 nM. Same read-out and setting: the same measure for `COc1cc(C)c(Nc2cc(=O)n(C)c(=O)n2Cc2cc(F)c(F)c(F)c2)cc1C` [Compound I-0991]: 29 nM.

The experiment is the same for the next values; noted with them: 1321N1 cells stably expressing human P2X7 receptor; BzATP stimulation, Yo-Pro uptake; read-out: IC50 (antagonistic activity for the human P2X7 receptor), class symbol.
As for `COc1cn(Cc2ccccc2OC(F)F)c(Nc2cccc(Cl)c2C)nc1=O` [Compound I-0457], the IC50 is less than 10 nM. The same measure, in the same setting: the same measure for `COc1cn(Cc2ccccc2)c(Nc2cccc3c(=O)[nH]ccc23)nc1=O` [Compound I-0392]: 10 to 100 nM; for `Cc1c(Cl)cccc1Nc1nc(=O)c(C(=O)NCC(F)(F)F)cn1Cc1ccccc1` [Compound I-0098]: 500 to 1000 nM; for `COc1cn(Cc2cc(F)cc(F)c2)c(Nc2cc(S(C)(=O)=O)c(C)cc2C)nc1=O` [Compound I-0551]: 10 to 100 nM.

For the molecule `COc1cc(C)c(Nc2nc(=O)c(OC)cn2Cc2ccc(F)c(Cl)c2)cc1C` [Compound I-0230], the IC50 was less than 10 nM. Still for that read-out and setting: the same measure for `COc1cn(Cc2cc(F)c(F)c(F)c2)c(Nc2cc(C)c(C)cc2C)nc1=O` [Compound I-0574]: less than 10 nM; for `COc1ccc(Nc2nc(=O)c(OC)cn2Cc2cc(F)cc(F)c2)c(C)c1` [Compound I-0538]: 10 to 100 nM. The same measure, in the same setting: as for `Cc1cccc(Nc2nc(=O)c(Cl)cn2Cc2ccccc2)c1C` [Compound I-0158], the figure is 10 to 100 nM; as for `COc1cn(Cc2cc(F)cc(Cl)c2)c(Nc2cc(C)c(Cl)cc2C)nc1=O` [Compound I-0385], 10 to 100 nM; as for `COc1cn(Cc2ccccc2)c(Nc2cc(C(F)(F)F)ccc2C)nc1=O` [Compound I-0097], 100 to 500 nM. For the molecule `CCc1cc(OC)c(OC)cc1Nc1nc(=O)c(F)cn1Cc1ccccc1` [Compound I-0266], the IC50 was less than 10 nM. Same read-out and setting: as for `CCc1c(Nc2nc(=O)c(OC)cn2Cc2ccccc2)cccc1OC` [Compound I-0212], the figure is less than 10 nM. On the same count and under the same terms, as for `CCc1cc(OC)c(OC)cc1Nc1nc(=O)c(OC)cn1Cc1ccc(F)c(F)c1` [Compound I-0272], the figure is less than 10 nM; as for `COc1cn(Cc2ccccc2)c(Nc2ccc(Cl)c(Cl)c2Cl)nc1=O` [Compound I-0132], 100 to 500 nM; as for `Cc1c(Cl)cccc1Nc1nc(=O)c(C(=O)OC(C)(C)C)cn1Cc1ccccc1` [Compound I-0111], 100 to 500 nM. Still for that read-out and setting: the same measure for `COc1cn(Cc2ccc(F)c(F)c2)c(Nc2cccc3sccc23)nc1=O` [Compound I-0485]: less than 10 nM; for `COc1cn(Cc2ccccc2)c(N[C@@H]2CCCc3ccccc32)nc1=O` [Compound I-0173]: 100 to 500 nM.

For the molecule `CCc1cc(OC)c(OC)cc1Nc1nc(=O)c(OC)cn1Cc1ccc(F)c(Cl)c1` [Compound I-0273], the 50% inhibitory concentration (IC50) was less than 10 nM.

With `COc1cn(Cc2ccc(F)c(Cl)c2)c(Nc2cc(C(C)(C)C)ccc2C)nc1=O` [Compound I-0501], the IC50 is 10 to 100 nM. As for `COc1cn(Cc2ccccc2)c(Nc2ccc(Br)cc2Cc2ccccc2)nc1=O` [Compound I-0184], the 50% inhibitory concentration (IC50) was 100 to 500 nM. As for `CCc1cc(OC)c(OC)cc1Nc1nc(=O)c(F)cn1Cc1ccc(F)c(Cl)c1` [Compound I-0268], the IC50 was less than 10 nM. On the same count and under the same terms, the same measure for `COc1cn(Cc2ccccc2)c(Nc2cc(C)c(Cl)cc2C)nc1=O` [Compound I-0233]: less than 10 nM; for `Cc1c(Cl)cccc1Nc1nc(=O)c(CC(=O)NCCO)cn1Cc1ccccc1` [Compound I-0337]: 100 to 500 nM. For `COc1cn(Cc2ccccc2)c(Nc2ccc(Cl)cc2C)nc1=O` [Compound I-0072], the IC50 lay in the range of 10 to 100 nM. The same measure, in the same setting: the same measure for `COc1cn(Cc2ccccc2)c(NC2CCc3ccccc32)nc1=O` (centres unmarked) [Compound I-0073]: 500 to 1000 nM; for `COc1cn(Cc2ccc(F)cc2)c(Nc2cccc(C)c2C)nc1=O` [Compound I-0141]: 10 to 100 nM. The same measure, in the same setting: as for `COc1c(C)ccc(Nc2nc(=O)c(OC)cn2Cc2ccc(F)c(F)c2)c1C` [Compound I-0517], the figure is less than 10 nM; as for `COc1cn(Cc2ccc(F)cc2)c(Nc2cc(C)c(OC(F)F)cc2C)nc1=O` [Compound I-0301], less than 10 nM. The same measure, in the same setting: the same measure for `CCc1ccc(OC)cc1Nc1nc(=O)c(OC)cn1Cc1ccc(F)c(Cl)c1` [Compound I-0246]: less than 10 nM; for `COc1cn(Cc2ccccc2Cl)c(Nc2cc(C)c(C)cc2C)nc1=O` [Compound I-0192]: 10 to 100 nM; for `CCc1c(Nc2nc(=O)c(F)cn2Cc2ccc(F)c(Cl)c2)cc(OC)cc1OC` [Compound I-0316]: less than 10 nM.

The same experiment, now with this note: antagonistic activity for the human P2X7 receptor; read-out: IC50.
As to `COc1cn(Cc2ccc(F)c(Cl)c2)c(Nc2cc(F)c(Cl)cc2C)nc1=O` [Compound I-0887], the half-inhibitory concentration (IC50) fell in the range of 10 to 100 nM. On the same count and under the same terms, the same measure for `COc1ccc(C)c(Nc2nc(=O)c(F)cn2Cc2ccc(F)c(Cl)c2)c1` [Compound I-1067]: less than 10 nM; for `Cc1cc2c(cc1Nc1nc(=O)c(F)cn1Cc1ccc(F)c(Cl)c1)COC2` [Compound I-1026]: less than 10 nM; for `O=c1nc(Nc2cccc3[nH]ccc23)n(Cc2cc(F)c(F)c(F)c2)cc1F` [Compound I-1023]: less than 10 nM. The same measure, in the same setting: the same measure for `COc1ccc(Nc2cc(=O)c(OC)cn2Cc2ccc(F)c(Cl)c2)c(C)c1` [Compound I-0944]: 100 to 500 nM; for `COc1cn(Cc2cc(F)cc(Cl)c2)c(Nc2cc(-c3ccnn3C)ccc2C)nc1=O` [Compound I-0734]: 10 to 100 nM.

With `Cc1nc2cc(C)c(Nc3nc(=O)c(F)cn3Cc3ccc(F)c(Cl)c3)cc2s1` [Compound I-0778], the 50% inhibitory concentration (IC50) is less than 10 nM. Same read-out and setting: the same measure for `CCc1cc(Br)ccc1Nc1nc(=O)c(OC)cn1Cc1cc(F)cc(F)c1` [Compound I-0630]: less than 10 nM; for `COc1cn(Cc2cc(F)cc(Cl)c2)c(Nc2cc(C(C)(C)O)ccc2C)nc1=O` [Compound I-0776]: 10 to 100 nM; for `Cc1ccc(CO)cc1Nc1nc(=O)c(F)cn1Cc1ccc(F)c(F)c1` [Compound I-1012]: less than 10 nM. Still for that read-out and setting: as for `Cc1cc(OC(F)F)ccc1Nc1nc(=O)c(F)cn1Cc1cc(F)cc(F)c1` [Compound I-1064], the figure is 10 to 100 nM. Same read-out and setting: the same measure for `COc1cn(Cc2ccc(F)c(Cl)c2)c(Nc2cc(C)c(OC(F)F)cc2C)cc1=O` [Compound I-0948]: 10 to 100 nM; for `Cc1nc2cc(C)c(Nc3nc(=O)c(F)cn3Cc3ccc(F)cc3)cc2s1` [Compound I-1011]: less than 10 nM. As for `COc1cn(Cc2cc(F)cc(F)c2)c(Nc2cc(-c3ccc(C)o3)ccc2C)nc1=O` [Compound I-0769], the IC50 fell in the range of 10 to 100 nM. Still for that read-out and setting: as for `COc1ccc(Nc2nc(=O)cnn2Cc2cc(F)c(F)c(F)c2)c(C)c1` [Compound I-1283], the figure is less than 10 nM; as for `COc1cn(Cc2ccccc2)c(Nc2cc(N3CCCC3)ccc2C)nc1=O` [Compound I-0883], 10 to 100 nM; as for `COCc1cn(Cc2cc(F)c(F)c(F)c2)c(Nc2cc3sc(C)nc3cc2C)nc1=O` [Compound I-1141], 10 to 100 nM. Same read-out and setting: the same measure for `COc1cn(Cc2ccc(F)cc2)c(Nc2cccc(OC(F)F)c2C)nc1=O` [Compound I-0660]: 10 to 100 nM; for `COc1cn(Cc2ccccc2)c(Nc2cc(C)c(F)cc2C)cc1=O` [Compound I-0946]: 500 to 1000 nM. Still for that read-out and setting: the same measure for `CCOc1cc(Nc2nc(=O)c(OC)cn2Cc2cc(F)c(F)c(F)c2)c(C)cc1C` [Compound I-0777]: less than 10 nM. For `COc1cn(Cc2ccc(F)c(Cl)c2)c(Nc2cc(Oc3ccccn3)ccc2C)nc1=O` [Compound I-0896], the IC50 is less than 10 nM.

In the case of `COc1cn(Cc2cc(F)cc(Cl)c2)c(Nc2cc(-c3cscn3)ccc2C)nc1=O` [Compound I-0752], the IC50 is 10 to 100 nM. Consider `Cc1ccc(-c2ncco2)cc1Nc1nc(=O)c(F)cn1Cc1cc(F)cc(F)c1` [Compound I-0851], for which the IC50 was less than 10 nM. In the case of `C#Cc1cc(Nc2nc(=O)c(OC)cn2Cc2ccc(F)c(Cl)c2)c(C)cc1F` [Compound I-0916], the 50% inhibitory concentration (IC50) fell in the range of 10 to 100 nM. Still for that read-out and setting: the same measure for `O=C1CCCc2c(Nc3nc(=O)c(Cl)cn3Cc3cc(F)c(F)c(F)c3)cccc21` [Compound I-1162]: less than 10 nM; for `Cc1nc2cc(Cl)c(Nc3nc(=O)c(F)cn3Cc3ccc(F)c(F)c3)cc2o1` [Compound I-1076]: less than 10 nM. Same read-out and setting: as for `CCOc1ccc(Nc2nc(=O)c(OC)cn2Cc2cccc(Cl)c2)c(C)c1` [Compound I-0677], the figure is 10 to 100 nM; as for `COc1cn(Cc2ccc(F)cc2)c(Nc2cccc(C)c2Cl)nc1=O` [Compound I-0662], 10 to 100 nM; as for `COc1cn(Cc2ccccc2)c(Nc2cccc(C)c2F)nc1=O` [Compound I-0762], 100 to 500 nM.

As to `CCOc1cc(C)c(Nc2nc(=O)c(F)cn2Cc2ccc(F)c(Cl)c2)cc1F` [Compound I-1060], the 50% inhibitory concentration (IC50) is 10 to 100 nM. Same read-out and setting: as for `Cc1cn(Cc2cc(F)cc(F)c2)c(Nc2ccc3[nH]ccc3c2C)nc1=O` [Compound I-1164], the figure is less than 10 nM. The same measure, in the same setting: the same measure for `COc1cn(Cc2ccc(F)c(F)c2)c(Nc2cc(C(C)(C)O)ccc2C)nc1=O` [Compound I-0732]: 10 to 100 nM; for `COc1cn(Cc2ccccc2)c(Nc2cc(F)c(Cl)cc2C)nc1=O` [Compound I-0886]: 10 to 100 nM; for `COc1cn(Cc2ccc(F)c(F)c2)c(Nc2cccc3c(=O)n(C)ccc23)nc1=O` [Compound I-0903]: 10 to 100 nM.

`COc1cn(Cc2cc(F)c(F)c(F)c2)c(Nc2cc(N3CCCC3=O)ccc2C)nc1=O` [Compound I-0803]: the IC50 lay in the range of 10 to 100 nM.

What is called IC50 is the concentration that inhibits the measured activity by half.
